Assay results taken from ChEMBL document CHEMBL4130568, “Benzoxaboroles as Efficient Inhibitors of the β-Carbonic Anhydrases from Pathogenic Fungi: Activity and Modeling Study” (ACS Med Chem Lett, 2017).
pKi: −log10 of the molar value.

Legend:
[1] = Inhibition of Malassezia globosa beta-carbonic anhydrase incubated for 15 mins prior to testing by stopped flow CO2 hydrase assay
[2] = target: T1, Carbonic anhydrase 2 (Cryptococcus neoformans, UniProt Q3I4V7); experiment: Inhibition of Cryptococcus neoformans Can2 incubated for 15 mins prior to testing by stopped flow CO2 hydrase assay
T1 sequence (Q3I4V7 whole entry): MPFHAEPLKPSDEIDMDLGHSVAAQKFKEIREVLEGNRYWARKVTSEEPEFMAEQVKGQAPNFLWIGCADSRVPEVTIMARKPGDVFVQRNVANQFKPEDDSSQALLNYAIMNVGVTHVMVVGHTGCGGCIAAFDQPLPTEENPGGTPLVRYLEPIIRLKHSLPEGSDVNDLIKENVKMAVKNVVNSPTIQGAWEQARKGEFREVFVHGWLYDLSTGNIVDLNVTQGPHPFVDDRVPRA

[3] = target: T2, Carbonic anhydrase (Candida glabrata CBS 138, UniProt Q6FTL6); experiment: Inhibition of Candida glabrata Nce103 incubated for 15 mins prior to testing by stopped flow CO2 hydrase assay; parameters: species or system Nakaseomyces glabratus
T2 sequence (Q6FTL6 whole entry): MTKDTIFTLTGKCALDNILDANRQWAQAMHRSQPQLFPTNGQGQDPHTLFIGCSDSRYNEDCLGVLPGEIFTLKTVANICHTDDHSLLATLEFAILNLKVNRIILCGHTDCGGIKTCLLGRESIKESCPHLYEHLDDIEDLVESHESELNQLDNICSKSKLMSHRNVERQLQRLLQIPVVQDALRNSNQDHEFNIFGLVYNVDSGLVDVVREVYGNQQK

[4] = target: Carbonic anhydrase 1 (Homo sapiens, UniProt P00915); experiment: Inhibition of human carbonic anhydrase-1 incubated for 15 mins prior to testing by stopped flow CO2 hydrase assay
Carbonic anhydrase 1, sequence (P00915 whole entry): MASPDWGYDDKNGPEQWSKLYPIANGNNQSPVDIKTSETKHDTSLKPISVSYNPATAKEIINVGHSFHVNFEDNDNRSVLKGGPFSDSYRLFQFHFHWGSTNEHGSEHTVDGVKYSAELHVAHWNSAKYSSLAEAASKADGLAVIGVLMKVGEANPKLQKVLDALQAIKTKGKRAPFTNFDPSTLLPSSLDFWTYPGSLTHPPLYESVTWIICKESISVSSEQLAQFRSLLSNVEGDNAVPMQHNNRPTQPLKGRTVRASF

[5] = target: Carbonic anhydrase 2 (Homo sapiens, UniProt P00918); experiment: Inhibition of human carbonic anhydrase-2 incubated for 15 mins prior to testing by stopped flow CO2 hydrase assay

SMILES	pKi [1]	pKi [2]	pKi [3]	pKi [4]	pKi [5]
O=C(Nc1ccc(C(F)(F)F)cc1)Nc1ccc2c(c1)B(O)OC2	4.13	7.08	7.02	6.31	6.34
OB1OCc2ccc(NC(=S)NCCc3ccccc3)cc21	4.65	6.17	6.33		
CC(=O)c1ccc(NC(=O)Nc2ccc3c(c2)B(O)OC3)cc1	4.21	7.19	6.69		
O=C(Nc1ccc(Cl)cc1)Nc1ccc2c(c1)B(O)OC2	4.11	7.04	7.09		
O=[N+]([O-])c1ccc(NC(=S)Nc2ccc3c(c2)B(O)OC3)cc1	5.06	7.10	7.02	6.41	< 5.00
O=C(Nc1ccc2c(c1)B(O)OC2)Nc1c(Cl)cc(Cl)cc1Cl	4.01	7.14	7.09		
OB1OCc2cc(F)ccc21 [TAVABOROLE]	4.00	7.05	7.14	5.70	6.34
O=C(Nc1ccc(F)cc1)Nc1ccc2c(c1)B(O)OC2	4.12	7.11	7.12	6.63	6.32
OB1OCc2ccc(NC(=S)Nc3ccc(C(F)(F)F)cc3)cc21	4.30	6.56	6.95	6.38	5.74
Nc1ccc2c(c1)B(O)OC2	4.35	7.03	6.61	5.03	6.23
OB1OCc2ccc(NC(=S)Nc3ccc(F)cc3)cc21	4.52	7.07	7.07	6.45	5.82
Cc1cc(Cl)cc(CNC(=O)Nc2ccc3c(c2)B(O)OC3)c1	4.06	6.40	7.10		
OB1OCc2ccc(NC(=S)Nc3ccccc3)cc21	4.67	6.70	7.01	6.27	5.79
O=C(NCc1ccco1)Nc1ccc2c(c1)B(O)OC2	4.25	6.55	7.02		
O=C(NCc1ccccc1)Nc1ccc2c(c1)B(O)OC2	4.23	6.22	6.70	6.25	6.36
COc1ccc(NC(=S)Nc2ccc3c(c2)B(O)OC3)cc1	4.54	7.05	7.07		
OB1OCc2ccccc21 [BENZOXABOROLE]	3.96	6.76	6.59		
O=C(Nc1ccccc1)Nc1ccc2c(c1)B(O)OC2	4.20	7.09	7.07	6.18	6.14
OB1OCc2ccc(NC(=S)Nc3ccc4ccccc4c3)cc21	4.51	6.24	6.47		
Cc1ccc(NC(=S)Nc2ccc3c(c2)B(O)OC3)cc1	4.60	6.74	7.05		
O=[N+]([O-])c1ccc2c(c1)B(O)OC2	4.04	7.06	7.05	5.20	6.30
OB1OCc2ccc(NC(=S)NCc3ccco3)cc21	5.22	6.63	6.64		
